Source: ChEMBL document CHEMBL2401653, “Synthesis, structure-property relationships and pharmacokinetic evaluation of ethyl 6-aminonicotinate sulfonylureas as antagonists of the P2Y₁₂ receptor” (Eur J Med Chem, 2013)
pIC50: −log10 of the molar value.

Assays:
[1] = Stability of the compound in MeCN assessed as compound remaining at room temperature; assay type: physicochemical
[2] = 1-octanol-phosphate buffer distribution coefficient, log D of the compound at pH 7.4 after 2 days by shake flask method; assay type: physicochemical
P2Y purinoceptor 12 [3] = molecular target: T1, P2Y purinoceptor 12 (Homo sapiens, UniProt Q9H244)
Description: Displacement of [125I]-AZ11931285 from P2Y12 receptor (unknown origin) after 1 hr by scintillation counting analysis

Liver microsomes [4] = test: Metabolic stability in rat liver microsomes at 1 umol/L by LC/MS analysis in absence of NADPH; assay type: ADME, Microsome; details: 1 µM
Liver microsomes [5] = test: Metabolic stability in human liver microsomes at 1 umol/L by LC/MS analysis in absence of NADPH; assay type: ADME, Microsome; details: 1 µM
Liver microsomes [6] = test: Intrinsic clearance in human liver microsomes at 1 umol/L by LC/MS analysis in presence of NADPH; assay type: ADME, Microsome; details: 1 µM
Liver microsomes [7] = test: Intrinsic clearance in rat liver microsomes at 1 umol/L by LC/MS analysis in presence of NADPH; assay type: ADME, Microsome; details: 1 µM
[8] = Apparent Permeability across apical to basolateral side in human Caco2 cells at 1 to 10 uM measured at 30 to 90 mins by LC/MS analysis; assay type: ADME, cell-based; details: Caco-2
P2Y purinoceptor 12 [9] = molecular target: T1, P2Y purinoceptor 12; remark: listed apart in the source
[10] = Half life in po dosed rat; assay type: ADME, organism-based; details: in vivo
[11] = Half life in iv dosed rat; assay type: ADME, organism-based; details: in vivo
[12] = Oral bioavailability in rat; assay type: ADME, organism-based; details: in vivo
[13] = Clearance in iv dosed rat; assay type: ADME, organism-based; details: in vivo
Plasma = test: Metabolic stability in rat plasma by HRMS analysis; assay type: ADME, cell-free
[14] = Fraction unbound in human plasma; assay type: ADME, cell-free

T1 sequence (Q9H244 whole entry): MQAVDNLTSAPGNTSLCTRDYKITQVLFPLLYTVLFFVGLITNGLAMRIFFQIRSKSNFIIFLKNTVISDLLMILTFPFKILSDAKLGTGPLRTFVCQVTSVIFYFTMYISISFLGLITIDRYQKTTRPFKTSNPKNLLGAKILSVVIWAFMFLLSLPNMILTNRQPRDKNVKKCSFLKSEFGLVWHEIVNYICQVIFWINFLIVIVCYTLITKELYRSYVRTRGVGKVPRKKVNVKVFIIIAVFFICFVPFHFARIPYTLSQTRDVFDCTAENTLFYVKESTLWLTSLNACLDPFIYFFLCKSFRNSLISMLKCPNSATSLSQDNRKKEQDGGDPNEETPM

Stability [1] | logD at 48 h [2] | pIC50 (P2Y purinoceptor 12 [3]) | Intrinsic clearance (CLint) (Liver microsomes [6]) [µL/min/mg] | Intrinsic clearance (Liver microsomes [7]) [µL/min/mg] | Papp A→B at up to 10 µM [8] [×10⁻⁶ cm/s] | pIC50 (P2Y purinoceptor 12 [9]) | SMILES | other results
Stable | < 0.5 | < 4.48 | – | – | – | – | O=C(O)c1cnc(N2CCN(C(=O)NS(=O)(=O)c3ccccc3)CC2)c(Cl)c1 | –
Stable | – | – | – | – | – | – | CCOC(=O)c1cnc(N2CCN(C(=O)Nc3ccc(C)cc3)CC2)c(Cl)c1 | –
Stable | – | 6.77 | > 70 | > 104 | 0.6 | 6.66 | CCOC(=O)c1cc(C#N)c(N2CCN(C(=O)NS(=O)(=O)c3ccccc3)CC2)nc1C(F)(F)F | Stability (Liver microsomes [4]): Stable; Stability (Liver microsomes [5]): Stable
Stable | – | – | – | – | – | – | CCOC(=O)c1cnc(N2CCN(C(=O)Nc3ccccc3)CC2)c(Cl)c1 | –
Stable | 0.9 | 6.19 | – | – | – | 5.49 | COC(=O)c1cnc(N2CCN(C(=O)NS(=O)(=O)c3ccc(Cl)s3)CC2)c(Cl)c1 | –
Stable | 2.7 | 6.85 | > 70 | – | 0.44 | 6.96 | CC(C)CCOC(=O)c1cnc(N2CCN(C(=O)NS(=O)(=O)c3ccc(Cl)s3)CC2)c(Cl)c1 | –
Stable | 1.2 | 6.38 | < 13 | < 19 | 0.12 | 5.89 | O=C(c1cnc(N2CCN(C(=O)NS(=O)(=O)c3ccc(Cl)s3)CC2)c(Cl)c1)C1CC1 | –
Stable | – | 5.54 | – | – | – | 6.16 | CCOC(=O)c1cc(C#N)c(N2C[C@@H]3C[C@H]2CN3C(=O)NS(=O)(=O)c2ccc(Cl)s2)nc1C | –
Stable | 0.9 | 7.48 | < 13 | > 104 | 0.37 | 7.27 | CCOC(=O)c1cc(C#N)c(N2CCN(C(=O)NS(=O)(=O)Cc3ccccc3)CC2)nc1C | –
Stable | 1.6 | 7.57 | > 70 | > 104 | 6.9 | 7.24 | CCOC(=O)c1cc(C#N)c(N2CCC(NC(=O)NS(=O)(=O)c3ccc(Cl)s3)CC2)nc1C | –
Stable | – | 6.85 | – | – | 0.3 | 6.89 | CCOC(=O)c1cc(C#N)c(N2CCN(C(=O)NS(=O)(=O)c3ccccc3)CC2)nc1C | Stability (Liver microsomes [4]): Stable; Stability (Liver microsomes [5]): Stable
Stable | 1.1 | 7.07 | < 13 | – | 1.2 | 7.11 | CCOC(=O)c1cc(C#N)c(N2CC(NC(=O)NS(=O)(=O)c3ccc(Cl)cc3)C2)nc1C | –
Stable | 2.1 | 6.72 | > 70 | > 104 | 19 | 6.59 | CCOC(=O)c1cc(C#N)c(N2CCC(NC(=O)NS(=O)(=O)c3ccc(Cl)cc3)CC2)nc1C | –
Stable | 1.1 | 7.10 | – | – | 1.2 | 7.09 | CCOC(=O)c1cc(C#N)c(N2CC(NC(=O)NS(=O)(=O)Cc3ccccc3)C2)nc1C | half-life [10]: 1.3 h; half-life [11]: 0.55 h; bioavailability [12]: 3%; clearance [13]: 31 mL/min/kg; Stability (Plasma): Unstable; fraction unbound [14]: < 0.015
Stable | – | 5.00 | – | – | – | 5.28 | CCOC(=O)c1cnc(N2CCN(C(=O)NC(=O)c3ccccc3)CC2)c(Cl)c1 | –
Stable | 0.6 | 6.43 | > 70 | > 104 | 0.54 | 6.33 | CCOC(=O)c1cnc(N2CCN(C(=O)NS(=O)(=O)c3ccc(F)cc3)CC2)c(Cl)c1 | –
Stable | 0.4 | 7.21 | < 13 | < 19 | 0.41 | 6.72 | CCOC(=O)c1cc(C#N)c(N2CC(NC(=O)NS(=O)(=O)c3ccccc3)C2)nc1C | half-life [10]: 9 h; half-life [11]: 1.7 h; bioavailability [12]: 39%; clearance [13]: 13 mL/min/kg; Stability (Plasma): Unstable; fraction unbound [14]: < 0.015
Stable | 1.6 | 6.68 | – | – | – | 6.62 | CCCOC(=O)c1cnc(N2CCN(C(=O)NS(=O)(=O)c3ccc(Cl)s3)CC2)c(Cl)c1 | –
Stable | – | 5.62 | – | – | – | 6.00 | CCOC(=O)c1cnc(N2CCN(C(=S)NC(=O)c3ccccc3)CC2)c(Cl)c1 | –
Stable | – | – | – | – | – | – | CCOC(=O)c1cnc(N2CCN(C(=O)Nc3ccccc3C)CC2)c(Cl)c1 | –

Stability [1] | logD at 48 h [2] | pIC50 (P2Y purinoceptor 12 [3]) | Intrinsic clearance (CLint) (Liver microsomes [6]) [µL/min/mg] | Intrinsic clearance (Liver microsomes [7]) [µL/min/mg] | Papp A→B at up to 10 µM [8] [×10⁻⁶ cm/s] | pIC50 (P2Y purinoceptor 12 [9]) | SMILES | other results
Stable | – | 4.92 | – | – | – | 5.43 | CCOC(=O)c1cnc(N2CCN(C(=S)Nc3ccccc3)CC2)c(Cl)c1 | –
Stable | 0.6 | 6.06 | – | – | – | 6.00 | CCOC(=O)c1cnc(N2CCN(C(=O)NS(=O)(=O)c3ccccc3Cl)CC2)c(Cl)c1 | –
Stable | 1.9 | 7.06 | – | > 104 | 30 | 6.82 | CCOC(=O)c1cc(C#N)c(N2CCC(NC(=O)NS(=O)(=O)Cc3ccccc3)CC2)nc1C | –
Stable | 2.3 | 7.02 | > 70 | – | 0.5 | 6.82 | CCCCOC(=O)c1cnc(N2CCN(C(=O)NS(=O)(=O)c3ccc(Cl)s3)CC2)c(Cl)c1 | –
Stable | 3.7 | – | – | – | – | – | CCOC(=O)c1cnc(N2CCN(C(=O)Nc3ccccc3)CC2)c(C#N)c1 | –
Stable | – | 6.16 | – | – | – | 6.33 | CCOC(=O)c1cc(C#N)c(N2CCN(C(=O)NS(=O)(=O)c3ccccc3Cl)CC2)nc1C(F)(F)F | –
Stable | 1.3 | 6.25 | – | > 104 | 0.16 | 6.05 | CCCC(=O)c1cnc(N2CCN(C(=O)NS(=O)(=O)c3ccc(Cl)s3)CC2)c(Cl)c1 | –
Stable | – | 7.17 | > 70 | > 104 | 0.13 | 7.01 | CCOC(=O)c1cc(C#N)c(N2CCN(C(=O)NS(=O)(=O)c3ccc(Cl)cc3)CC2)nc1C(F)(F)F | –
Stable | – | 5.62 | – | – | – | 5.77 | C=C(NC(=O)N1CCN(c2ncc(C(=O)OCC)cc2Cl)CC1)c1ccccc1 | –
Stable | 0.4 | 6.64 | – | > 104 | 0.053 | 6.68 | CCOC(=O)c1cc(C#N)c(N2CCN(C(=O)NS(=O)(=O)c3ccc(F)cc3)CC2)nc1C(F)(F)F | –
Stable | 1.6 | 7.19 | > 70 | > 104 | 0.31 | 7.43 | CCOC(=O)c1cc(C#N)c(N2CCN(C(=O)NS(=O)(=O)c3ccc(Cl)s3)CC2C)nc1C (racemic) | –
Stable | – | 5.03 | – | – | – | 4.85 | CCCS(=O)(=O)c1cnc(N2CCN(C(=O)NS(=O)(=O)c3ccc(Cl)s3)CC2)c(Cl)c1 | –
Stable | 1.5 | 6.18 | – | > 104 | – | 5.74 | CCOC(=O)c1ccc(N2CCN(C(=O)NS(=O)(=O)c3ccc(Cl)s3)CC2)c(Cl)c1 | –
Stable | 0.4 | 6.62 | < 13 | < 19 | 0.39 | 6.24 | CCOC(=O)c1cc(C#N)c(N2CC3CN(C(=O)NS(=O)(=O)c4ccccc4)CC3C2)nc1C (configuration not stated) | –
Stable | 5 | – | – | – | – | – | CCOC(=O)c1cc(C#N)c(N2CCN(C(=O)NCc3ccc(F)cc3)CC2)nc1C(F)(F)F | –
Stable | 0.9 | 6.20 | – | – | – | 6.62 | CCOC(=O)c1cc(C#N)c(N2CCCN(C(=O)NS(=O)(=O)c3ccc(Cl)s3)CC2)nc1C | –
Stable | – | 7.02 | < 13 | > 104 | 0.19 | 6.96 | CCOC(=O)c1cc(C#N)c(N2CCN(C(=O)NS(=O)(=O)c3ccc(Cl)s3)C(CCC(=O)O)C2)nc1C(F)(F)F (racemic) | half-life [10]: 4 h; half-life [11]: 0.62 h; bioavailability [12]: 0.83%; clearance [13]: 46 mL/min/kg; Stability (Plasma): Unstable; fraction unbound [14]: < 0.015
Stable | 1.5 | 6.60 | > 70 | > 104 | – | 6.28 | CC(C)OC(=O)c1cnc(N2CCN(C(=O)NS(=O)(=O)c3ccc(Cl)s3)CC2)c(Cl)c1 | –
Stable | – | 6.37 | – | – | – | 6.42 | CCOC(=O)c1cc(C#N)c(N2CCN(C(=O)NS(=O)(=O)c3ccccc3C)CC2)nc1C(F)(F)F | –
